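48-hour exposure; five concentrations; linearly interpolated endpoints. TGI: concentration producing complete growth inhibition.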

These results are taken from PubChem BioAssay (NCI).

Among the test systems are OVCAR-4 ovarian; SK-MEL-2 melanoma; K-562 leukemia; HT29 colon; COLO 205 colon; UACC-257 melanoma; HCC-2998 colon; IGROV1 ovarian; NCI-H23 lung; SF-268 CNS.
Experiment in all cases: NCI anticancer screen, dose series, 48 h

Turning to `COC(=O)[C@H](C)N1C(=O)N[C@@H](C(C)C)C1=O`, the TGI with OVCAR-4 ovarian, with SK-MEL-2 melanoma, with K-562 leukemia, with HT29 colon, with COLO 205 colon and with UACC-257 melanoma was greater than 100 µM in each case. Besides, the TGI in the test with HCC-2998 colon, in the test on IGROV1 ovarian and in the test with NCI-H23 lung was greater than 100 µM in each case.

For `COc1cc(C2C3=C(CCC3=O)Oc3cc4c(cc32)OCO4)cc(OC)c1OC` (stereo not drawn), the TGI was greater than 100 µM with OVCAR-4 ovarian; greater than 100 µM in the test on K-562 leukemia; greater than 100 µM with HT29 colon; 1.81 µM in the test with COLO 205 colon; greater than 100 µM in the test on UACC-257 melanoma; greater than 100 µM in the test on IGROV1 ovarian. This molecule yielded a TGI in the test with NCI-H23 lung greater than 100 µM.

Consider `CCCCc1c2c(nc3c1CCc1cc4c(nc1-3)-c1nc3c(c(CCCC)c1CC4)CCC/C3=C\c1ccccc1)/C(=C/c1ccccc1)CCC2`, for which the TGI with SK-MEL-2 melanoma, in the test with K-562 leukemia, in the test with SF-268 CNS, in the test on HT29 colon, with COLO 205 colon and in the test with UACC-257 melanoma was greater than 100 µM each time. Further, the TGI with HCC-2998 colon, with IGROV1 ovarian and with NCI-H23 lung was greater than 100 µM each time.

Regarding `CC1(C)O[C@@H](CO)[C@H]([C@@]23OC[C@H]4OC(C)(C)OC4[C@@H]2OC(C)(C)O3)O1` (stereo partly drawn), the TGI in the test with OVCAR-4 ovarian, with SK-MEL-2 melanoma, in the test on K-562 leukemia, with SF-268 CNS, in the test on HT29 colon and in the test with COLO 205 colon was greater than 100 µM each time. The TGI with HCC-2998 colon, in the test on IGROV1 ovarian and in the test with NCI-H23 lung was greater than 100 µM each time.

As to `Nc1nc(Cl)cc(N=Nc2ccccc2)n1`, the TGI with SK-MEL-2 melanoma is 46.9 µM; in the test on K-562 leukemia, greater than 100 µM; in the test with SF-268 CNS, greater than 100 µM; in the test with HT29 colon, greater than 100 µM; in the test on COLO 205 colon, greater than 100 µM; in the test on UACC-257 melanoma, greater than 100 µM. The TGI in the test with IGROV1 ovarian stood at 51.3 µM; in the test on NCI-H23 lung it was 55.5 µM.

For `C#CCNC(Cc1cnc[nH]1)C(=O)O` (stereo not drawn), the TGI in the test with OVCAR-4 ovarian, in the test on SK-MEL-2 melanoma, in the test with K-562 leukemia, in the test with SF-268 CNS, in the test on HT29 colon and with COLO 205 colon was greater than 100 µM in each case. In addition, the TGI in the test on UACC-257 melanoma and in the test on IGROV1 ovarian was greater than 100 µM in each case.

On to `Cc1cc(Cc2c(F)c(F)c(Cc3cc(C)no3)c(F)c2F)on1`, for which the TGI in the test with OVCAR-4 ovarian, in the test with SK-MEL-2 melanoma, with K-562 leukemia, in the test with SF-268 CNS, in the test with HT29 colon and in the test with COLO 205 colon was greater than 100 µM throughout. For the same molecule, the TGI with UACC-257 melanoma, in the test with IGROV1 ovarian and in the test with NCI-H23 lung was greater than 100 µM throughout.

With `CNC(=O)CCC(NC(C)=O)C(=O)NC(Cc1ccc(NC(=O)CCCCC(C)=O)cc1)C(=O)NC(CCC(=O)NC)C(=O)NC` (stereo not drawn), the TGI in the test on OVCAR-4 ovarian, with K-562 leukemia, in the test on SF-268 CNS, with HT29 colon, in the test with COLO 205 colon and in the test with HCC-2998 colon was greater than 100 µM each time. Also, the TGI in the test with IGROV1 ovarian and in the test on NCI-H23 lung was greater than 100 µM each time.

Take `S=C(N/N=C\C=N/NC(=S)N1CCCCCC1)N1CCCCCC1`: the TGI with SK-MEL-2 melanoma, with K-562 leukemia, in the test on SF-268 CNS, in the test on HT29 colon, in the test with COLO 205 colon and with UACC-257 melanoma was greater than 100 µM each time. Further, the TGI with HCC-2998 colon, in the test with IGROV1 ovarian and in the test with NCI-H23 lung was greater than 100 µM in each case.

Take `Cc1c2c3cc(O)ccc3nc-2n(C)c2ccccc12`: the TGI in the test on K-562 leukemia stood at 7.5 µM; in the test with SF-268 CNS it was 8.02 µM; with HT29 colon it was 7.26 µM; in the test with UACC-257 melanoma it was 8.05 µM; with HCC-2998 colon, 6.28 µM; with IGROV1 ovarian it was 8.92 µM. Moreover, the TGI in the test on NCI-H23 lung turned out to be 8.61 µM.

As for `O=C1NC(=S)N/C1=C/c1ccccc1O`, the TGI in the test on OVCAR-4 ovarian, with SK-MEL-2 melanoma, in the test with SF-268 CNS, with HT29 colon, in the test on COLO 205 colon and with UACC-257 melanoma was greater than 100 µM in each case. Besides, the TGI with HCC-2998 colon, in the test with IGROV1 ovarian and with NCI-H23 lung was greater than 100 µM in each case.

On to `N#Cc1c(Nc2ccc(F)cc2)[n+]([O-])c2ccc(Cl)cc2[n+]1[O-]`, for which the TGI in the test with OVCAR-4 ovarian is 5.71 µM; in the test with SK-MEL-2 melanoma, 77.9 µM; with K-562 leukemia it was 8.56 µM; in the test on SF-268 CNS it was 14.2 µM; in the test on HT29 colon it was greater than 100 µM; in the test with COLO 205 colon, 4.52 µM. In addition, the TGI in the test on UACC-257 melanoma worked out at 11.9 µM; with IGROV1 ovarian it was 4.02 µM; in the test with NCI-H23 lung it was 23.4 µM.

For the molecule `CCc1nnc(-n2c(C)nc3cc(Cl)ccc3c2=O)s1`, the TGI with OVCAR-4 ovarian, with K-562 leukemia, in the test on SF-268 CNS, in the test on HT29 colon, with COLO 205 colon and with UACC-257 melanoma was greater than 100 µM each time. Besides, the TGI with HCC-2998 colon, in the test on IGROV1 ovarian and in the test with NCI-H23 lung was greater than 100 µM throughout.

For `CN=C(Nn1cnnc1)OC`, the TGI with OVCAR-4 ovarian, in the test with SK-MEL-2 melanoma, in the test with K-562 leukemia, in the test with HT29 colon, in the test on COLO 205 colon and in the test on UACC-257 melanoma was greater than 100 µM in each case. The TGI in the test with HCC-2998 colon, in the test on IGROV1 ovarian and in the test with NCI-H23 lung was greater than 100 µM in each case.

Take `COC(=O)c1ccc(-c2nc(C#N)c(N)o2)cc1`: the TGI with OVCAR-4 ovarian, in the test with SK-MEL-2 melanoma, in the test with K-562 leukemia, with SF-268 CNS, with HT29 colon and in the test with COLO 205 colon was greater than 100 µM throughout. Besides, the TGI in the test on UACC-257 melanoma, with IGROV1 ovarian and in the test on NCI-H23 lung was greater than 100 µM throughout.
